pKi: −log10 of the molar value. “And” between values parts separate entries of the source, which are not always exact repeats. Equal entries are not always repeated.
Tests used:
hA1AR = molecular target: T1, hA1AR (Homo sapiens, UniProt P30542); assay: Displacement of specific [3H]CCPA binding at hA1AR expressed in CHO cells; conditions: [3H]-CCPA displacement, n = 3–6, read-out: Ki hA1 (95% CI)
T1 sequence (P30542 1-326): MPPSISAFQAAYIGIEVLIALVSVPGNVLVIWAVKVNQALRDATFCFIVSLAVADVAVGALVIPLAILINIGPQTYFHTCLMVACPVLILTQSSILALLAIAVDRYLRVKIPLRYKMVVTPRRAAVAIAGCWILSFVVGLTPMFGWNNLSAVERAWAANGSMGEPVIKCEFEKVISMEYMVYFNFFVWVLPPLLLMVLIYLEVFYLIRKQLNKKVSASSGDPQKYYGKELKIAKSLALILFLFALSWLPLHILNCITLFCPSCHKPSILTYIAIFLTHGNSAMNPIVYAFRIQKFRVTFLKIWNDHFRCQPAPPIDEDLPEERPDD
Description: (§1) The receptor binding affinities of the synthesized benzothiazolylquinoline derivatives (6a-l) are recapitulated in table 2. The binding affinity of the antagonist was estimated by measuring the displacement of selective radioligands which were formerly bound to the receptor expressed (Chinese hamster ovary cells (CHO) for hA1AR, hA2AAR and hA3AR) at the surface of the cell. In this particular assay, the displacement of: (i) specific [3H] CCPA (2-chloro-N(6)-cyclopentyladenosine) binding at hA1AR, (ii) specific [3H] NECA (5'-N-ethylcarboxamidoadenosine) binding at the hA2AAR, and (iii) [3H] HEMADO (2-(1-hexynyl)-N^6-methyladenosine) at the hA3AR were evaluated. […] Ki (dissociation constant) value of the data was calculated using the Cheng and Prusoff equation [49], with geometric means of at least three experiments including 95% confidence intervals. […] Selectivity of this compound at hA3 with respect to hA1 and hA2 has also been reduced to some extent.
(§2) The human A1, A2A, A2B, and A3ARs were transfected in CHO cells based on the previously reported method. The cells were grown adherently and maintained in Dulbecco's modified Eagle's medium with nutrient mixture F12 (DMEM/F12) without nucleosides, containing 10% foetal calf serum, streptomycin (100 µg ml^−1), penicillin (100 µg ml^−1), L-glutamine (2 mM) and Geneticin (G418, 0.2 mg ml^−1) at 37°C in 5% CO2, 95% air. The membrane preparation was initiated by removal of culture medium followed by washing of the cells with phosphate buffered saline and scraped off T75 flasks in ice-cold hypotonic buffer (5 mM Tris–HCl, 2 mM EDTA, pH7.4). Then the cell suspension was homogenized with a polytron, and the homogenate was centrifuged for 10 min at 1000 g. The supernatant was then centrifuged for 30 min at 100 000 g. The membrane pellet was suspended in (i) 50 mM Tris–HCl buffer, pH 7.4, for A1ARs; (ii) 50 mM Tris–HCl, 10 mM MgCl2 buffer, pH 7.4, for A2AARs; and (iii) 50 mM Tris–HCl, 10 mM MgCl2, 1 mM EDTA buffer, pH 7.4, for A3ARs. The cell suspension was incubated with adenosine deaminase for 30 min at 37°C. Then the membrane preparation was used for binding experiments.
(§3) For radioligand binding at A1 ARs 1 nM [3H] CCPA was used, whereas 30 nM of [3H] NECA were used for A2A and 10 nM of [3H]- HEMADO were used for A3 receptors, respectively. Nonspecific binding of [3H]CCPA was determined in the presence of 1 mM theophylline, when [3H]NECA 100 µM R-PIA was used.
(§4) Inhibitory binding constants, Ki, were calculated from the IC50 values according to the Cheng and Prusoff equation Ki = IC50/(1 + [C*]/KD*), where [C*] is the concentration of the radioligand and KD* its dissociation constant. A weighted nonlinear least-squares curve fitting program LIGAND was also used for computer analysis of inhibition experiments. Potency values (IC50) obtained in cyclic AMP assays were calculated by nonlinear regression analysis using the equation for a sigmoid concentration–response curve (Graph Pad Prism, San Diego, CA, USA). All experimental data are expressed as geometric mean with 95% confidence limits in parentheses of three or four independent experiments performed in duplicate.

hA3AR = molecular target: T2, hA3AR (Homo sapiens, UniProt P0DMS8); assay: Displacement of specific [3H]HEMADO binding at hA3AR expressed in CHO cells; conditions: for pKi: [3H]-HEMADO displacement, CHO cells, n = 3–6, read-out: Ki hA3 (95% CI); for selectivity hA1/A3: ratio of Ki hA1 to Ki hA3; for selectivity hA2A/A3: ratio of Ki hA2A to Ki hA3 as headed
T2 construct: expressed in transfected cells; host or cells: CHO cells (membrane preparation)
T2 sequence (P0DMS8 1-318): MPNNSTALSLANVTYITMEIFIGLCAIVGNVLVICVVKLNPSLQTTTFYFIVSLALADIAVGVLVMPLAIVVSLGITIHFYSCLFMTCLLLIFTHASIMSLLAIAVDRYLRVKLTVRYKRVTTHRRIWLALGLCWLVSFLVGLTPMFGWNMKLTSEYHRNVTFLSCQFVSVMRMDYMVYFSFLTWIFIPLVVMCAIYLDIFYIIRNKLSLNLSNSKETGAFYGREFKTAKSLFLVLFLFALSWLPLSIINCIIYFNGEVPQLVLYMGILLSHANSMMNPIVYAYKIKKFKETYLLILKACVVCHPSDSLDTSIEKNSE
Experimental: The human A1, A2A, A2B, and A3ARs were transfected in CHO cells based on the previously reported method [47–50]. The cells were grown adherently and maintained in Dulbecco's modified Eagle's medium with nutrient mixture F12 (DMEM/F12) without nucleosides, containing 10% foetal calf serum, streptomycin (100 µg ml^−1), penicillin (100 µg ml^−1), L-glutamine (2 mM) and Geneticin (G418, 0.2 mg ml^−1) at 37°C in 5% CO2, 95% air. The membrane preparation was initiated by removal of culture medium followed by washing of the cells with phosphate buffered saline and scraped off T75 flasks in ice-cold hypotonic buffer (5 mM Tris–HCl, 2 mM EDTA, pH7.4). Then the cell suspension was homogenized with a polytron, and the homogenate was centrifuged for 10 min at 1000 g. The supernatant was then centrifuged for 30 min at 100 000 g. The membrane pellet was suspended in (i) 50 mM Tris–HCl buffer, pH 7.4, for A1ARs; (ii) 50 mM Tris–HCl, 10 mM MgCl2 buffer, pH 7.4, for A2AARs; and (iii) 50 mM Tris–HCl, 10 mM MgCl2, 1 mM EDTA buffer, pH 7.4, for A3ARs. The cell suspension was incubated with adenosine deaminase for 30 min at 37°C. Then the membrane preparation was used for binding experiments.
For radioligand binding at A1 ARs 1 nM [3H] CCPA was used, whereas 30 nM of [3H] NECA were used for A2A and 10 nM of [3H]- HEMADO were used for A3 receptors, respectively [47–50]. Nonspecific binding of [3H]CCPA was determined in the presence of 1 mM theophylline, when [3H]NECA 100 µM R-PIA was used.
Inhibitory binding constants, Ki, were calculated from the IC50 values according to the Cheng and Prusoff equation Ki = IC50/(1 + [C*]/KD*), where [C*] is the concentration of the radioligand and KD* its dissociation constant [49, 50]. A weighted nonlinear least-squares curve fitting program LIGAND was also used for computer analysis of inhibition experiments. […] All experimental data are expressed as geometric mean with 95% confidence limits in parentheses of three or four independent experiments performed in duplicate.

hA2AAR = molecular target: T3, hA2AAR (Homo sapiens, UniProt P29274); assay: Displacement of specific [3H]NECA binding at hA2AAR expressed in CHO cells; conditions: [3H]-NECA displacement, n = 3–6, read-out: Ki hA2A (95% CI)
T3 construct: expressed in transfected cells; host or cells: CHO cells (membrane preparation)
T3 sequence (P29274 whole entry): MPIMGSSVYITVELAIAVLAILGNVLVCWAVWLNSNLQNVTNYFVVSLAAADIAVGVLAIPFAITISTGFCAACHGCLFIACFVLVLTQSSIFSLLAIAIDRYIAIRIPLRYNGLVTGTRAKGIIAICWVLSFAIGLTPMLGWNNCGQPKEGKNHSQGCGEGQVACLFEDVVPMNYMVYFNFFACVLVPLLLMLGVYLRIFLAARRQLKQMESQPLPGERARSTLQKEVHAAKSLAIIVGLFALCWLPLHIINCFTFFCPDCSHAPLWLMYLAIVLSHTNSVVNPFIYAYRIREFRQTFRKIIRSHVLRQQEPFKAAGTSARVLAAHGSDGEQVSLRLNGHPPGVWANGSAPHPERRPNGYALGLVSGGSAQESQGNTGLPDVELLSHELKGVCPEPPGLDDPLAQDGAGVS
Description: as §1, §2, §3, §4

hA2BAR = molecular target: T4, hA2BAR (Homo sapiens, UniProt P29275); assay: Inhibition of NECA-stimulated adenylyl cyclase activity in CHO cells expressing hA2BAR; assay type: biochemical; conditions: read-out: Ki hA2B (95% CI)
T4 construct: expressed in transfected cells; host or cells: CHO cells (crude membrane pellet)
T4 sequence (P29275 1-332): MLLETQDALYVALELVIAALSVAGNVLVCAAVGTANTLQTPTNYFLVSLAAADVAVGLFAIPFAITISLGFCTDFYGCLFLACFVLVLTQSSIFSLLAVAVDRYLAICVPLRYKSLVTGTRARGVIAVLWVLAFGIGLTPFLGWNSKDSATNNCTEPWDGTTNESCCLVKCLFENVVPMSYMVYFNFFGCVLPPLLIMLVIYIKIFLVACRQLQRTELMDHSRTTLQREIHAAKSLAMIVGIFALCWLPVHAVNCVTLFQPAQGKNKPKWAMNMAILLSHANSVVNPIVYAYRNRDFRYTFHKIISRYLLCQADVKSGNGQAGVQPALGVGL
Experimental: as §2
The potency of antagonists at the A2BAR was determined in adenylyl cyclase experiments. For the measurement of adenylyl cyclase activity, only one high speed centrifugation of the homogenate was used. The resulting crude membrane pellet was resuspended in 50 mM Tris–HCl, pH 7.4 and immediately used for the cyclase assay.
as §4

With `c1ccc(-c2nc3ccccc3s2)c(OCCOc2cccc3cccnc23)c1` [Compound 6a] the pKi (hA1AR) was less than 4.00, the pKi (hA3AR) was ~5.59 and 5.59 and the pKi (hA2AAR) was 4.62. For the same molecule, the pKi (hA2BAR) was less than 4.52.
With `Brc1cc(Br)c2cccnc2c1OCCOc1ccccc1-c1nc2ccccc2s1` [Compound 6b] the pKi (hA1AR) was less than 4.00, the pKi (hA3AR) was 5.49 and the “selectivity hA1/A3” value (hA3AR) was greater than 31.25. The “selectivity hA2A/A3” value (hA3AR) was greater than 6.25, the pKi (hA2AAR) was 4.76 and the pKi (hA2BAR) was less than 4.70. It also gave a melting point of 110 to 112 °C.
With `Clc1ccc(OCCOc2ccccc2-c2nc3ccccc3s2)c2ncccc12` [Compound 6c] the pKi (hA1AR) was 4.51, the pKi (hA3AR) was 4.52 and the pKi (hA2AAR) was 4.48. The pKi (hA2BAR) was less than 4.70.
In the case of `Clc1cc(I)c(OCCOc2ccccc2-c2nc3ccccc3s2)c2ncccc12` [Compound 6d], the pKi (hA1AR) was less than 4.00, the pKi (hA3AR) was 5.25 and the “selectivity hA1/A3” value (hA3AR) was greater than 17.85. The “selectivity hA2A/A3” value (hA3AR) was greater than 3.57, the pKi (hA2AAR) was less than 4.70 and the pKi (hA2BAR) was less than 4.70. For the same molecule, the melting point was 125 to 127 °C.
Molecule `c1ccc(-c2nc3ccccc3s2)c(OCCCOc2cccc3cccnc23)c1` [Compound 6e] has a pKi (hA1AR) of less than 4.00, a pKi (hA3AR) of 5.42 and a pKi (hA2AAR) of less than 4.70. The pKi (hA2BAR) was less than 4.52.
`Brc1cc(Br)c2cccnc2c1OCCCOc1ccccc1-c1nc2ccccc2s1` [Compound 6f] showed a pKi (hA1AR) of less than 4.00, a pKi (hA3AR) of 5.21 and a pKi (hA2AAR) of less than 4.70. The pKi (hA2BAR) was less than 4.52.
In the case of `Clc1ccc(OCCCOc2ccccc2-c2nc3ccccc3s2)c2ncccc12` [Compound 6g], the pKi (hA1AR) was less than 4.00, the pKi (hA3AR) was 5.38 and the pKi (hA2AAR) was less than 4.70. It also gave a pKi (hA2BAR) of less than 4.70.
`Clc1cc(I)c(OCCCOc2ccccc2-c2nc3ccccc3s2)c2ncccc12` [Compound 6h] gave a pKi (hA1AR) of less than 4.00, a pKi (hA3AR) of 5.21 and a pKi (hA2AAR) of less than 4.70. For the same molecule, the pKi (hA2BAR) was less than 4.70.
`c1ccc(-c2nc3ccccc3s2)c(OCCCCOc2cccc3cccnc23)c1` [Compound 6i] gave a pKi (hA1AR) of 4.53, a pKi (hA3AR) of 4.60 and a pKi (hA2AAR) of 4.46. It also gave a pKi (hA2BAR) of less than 4.70.
`Brc1cc(Br)c2cccnc2c1OCCCCOc1ccccc1-c1nc2ccccc2s1` [Compound 6j] gave a pKi (hA1AR) of less than 4.00, a pKi (hA3AR) of 5.19 and a pKi (hA2AAR) of less than 4.70. For the same molecule, the pKi (hA2BAR) was less than 4.70.
Molecule `Clc1ccc(OCCCCOc2ccccc2-c2nc3ccccc3s2)c2ncccc12` [Compound 6k] has a pKi (hA1AR) of less than 4.00, a pKi (hA3AR) of 5.43 and a pKi (hA2AAR) of less than 4.70. For the same molecule, the pKi (hA2BAR) was less than 5.00.
`Clc1cc(I)c(OCCCCOc2ccccc2-c2nc3ccccc3s2)c2ncccc12` [Compound 6l] gave a pKi (hA1AR) of less than 4.00, a pKi (hA3AR) of 5.44 and a pKi (hA2AAR) of less than 4.70. It also gave a pKi (hA2BAR) of less than 4.52.

Source: PMC5830763, “Discovery of benzothiazolylquinoline conjugates as novel human A3 receptor antagonists: biological evaluations and molecular docking studies” (Royal Society Open Science, 2018)
